# Assay results published in patent publication EP4702986A1, “POLYPEPTIDE AND USE THEREOF” (Biocells (Beijing) Biotech Co., Ltd., priority 2023, dated 2024).
# Entries after “also recorded” stand apart in the source; their conditions may differ. Numbered stars: 1 amine (or outer) side, 2 acyl side, 3 side chain; on linkers, the order of the positions; unused ones are H or OH. Square brackets hold non-standard residues; d marks the D form. Side chains are listed from the residue outwards. Peptide text beside a SMILES is read from it. * marks the point of attachment. ξ: configuration not given here. γGlu = O=C(O)[C@H](CCC(=O)[*:2])N[*:1]; Feruloyl = COc1cc(/C=C/C(=O)*)ccc1O; ξ2Nal = NC(Cc1ccc2ccccc2c1)C(=O)O; Fumaroyl = O=C(O)/C=C/C(=O)*; Lauroyl = CCCCCCCCCCCC(=O)*; AEEA = NCCOCCOCC(=O)O
# Tests used:
# [1] = biological target: T1, human ETB receptor (Homo sapiens, UniProt P24530); test: Determination of EC50 of polypeptides against human ETB receptor (IP-One Gq kit); format: cell-based; conditions: 293T-17 cells transfected with PCDNA3.1-hETB; read-out: hETBR agonist activity EC50/nM
# T1 construct: expressed in transfected cells; host or cells: 293T-17 cells, transient transfection
# T1 sequence (P24530 27-442): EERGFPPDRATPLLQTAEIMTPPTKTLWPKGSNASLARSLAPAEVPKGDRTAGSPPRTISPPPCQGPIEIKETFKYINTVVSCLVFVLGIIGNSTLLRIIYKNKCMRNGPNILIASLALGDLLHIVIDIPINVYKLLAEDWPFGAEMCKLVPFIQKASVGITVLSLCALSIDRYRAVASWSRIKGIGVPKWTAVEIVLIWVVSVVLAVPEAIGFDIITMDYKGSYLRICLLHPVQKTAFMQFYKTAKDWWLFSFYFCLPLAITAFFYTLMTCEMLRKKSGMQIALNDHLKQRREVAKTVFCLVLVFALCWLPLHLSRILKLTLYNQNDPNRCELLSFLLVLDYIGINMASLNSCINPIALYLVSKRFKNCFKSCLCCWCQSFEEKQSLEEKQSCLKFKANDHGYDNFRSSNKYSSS
# Method: 293T-17 cells were seeded at a density of 650,000 cells per well in a 6-well plate and cultured overnight in an incubator at 37°C and 5% CO2. Afterward, the cells were transfected with an expression vector, PCDNA3.1-hETB which contained a human ETB receptor gene, at a plasmid concentration of 2.5 µg per well. The cells were further cultured for 48 hours, and green fluorescence expression was observed under a fluorescence microscope. The cells were then digested with trypsin and counted. The activity of compounds on the human ETB receptor was determined with the IP-One Gq kit from Cisbio Bioassays. The cells were suspended in Stim Buffer provided in the kit and the cell suspension was added to a 96-well detection plate at 7 µL cell suspension (containing 30,000 cells) per well. The polypeptides to be tested (prepared according to the Preparation Example of the invention) were diluted in Stim B to obtain a gradient of 11 concentration points. For each concentration point, the polypeptides to be tested were dissolved in Stim B to be at a concentration of 2×, and added at 7 µL to the test cells, while 7 µL of PBS solution was added to the cells in the negative control wells. The plate was sealed and incubated at 37°C for 1 hour in a cell culture incubator. Detection wells, positive control wells containing human endothelin ET1 (ET1: […] (C1-C15,C3-C11)), and PBS control wells were each added with 3 µL of IP1 d2 working solution and 3 µL of IP1 Tb cryptotate Antibody working solution. The plate was then sealed and incubated in the dark at room temperature (25°C±5°C) for 1 hour. The plate seal was removed, and the […] at 665 nm and 620 nm was measured with an ID5 microplate reader. The ratio of the acceptor emission signal to the donor emission signal, i.e., (signal at 665 nm/signal at 620 nm)×10^4, was calculated for each well. With F representing the average value of values of signal at 665 nm/signal at 620 nm for the test samples at various concentrations, a scatterplot was plotted, where the abscissa represented the F value, and the ordinate represented the logarithmic value of the peptide concentration. A curve was fitted with an appropriate method to calculate EC50 values of the polypeptides against the human ETB receptor. Another method was provided for fitting a curve where activation rate of the test polypeptides at each concentration relative to the positive control sample human endothelin ET1 was calculated first with the method in Example 1, and a scatterplot was plotted, where the abscissa represented the activation rate, and the ordinate represented the logarithmic value of the polypeptide concentration. A curve was fitted with an appropriate method to calculate the EC50 values of the polypeptides against the human ETB receptor.
# [2] = in vivo; conditions: male, SD, rat, in vivo, iv
# Method: (§1) In an experiment about acute toxicity of intravenous administration, male SD rats weighing 200-230 g were dosed in a range between 480 µg/Kg and 30 µg/Kg via tail vein injection in a descending order of dosage. […] Toxic response and mortality of the rats were preliminarily observed, and time of death and doses without mortality of the rats were recorded. The level of acute toxicity of the polypeptides was preliminarily determined based on the doses without mortality.
# [3] = tested on: male SD rats; test: in vivo; conditions: one animal per row, observed 24 hours
# Method: as §1
# [4] = tested on: male SD rats; conditions: male SD rats, subcutaneous, observed for 48 hours
# Method: In an experiment about acute toxicity of subcutaneous administration, male SD rats weighing 200-230 g were dosed in a range between 60 µg/Kg and 960 µg/Kg. Observation was made for 48 hours after subcutaneous administration. Toxic response and mortality of the rats were preliminarily observed, and time of death and doses without mortality were recorded. The level of acute toxicity of the polypeptides was preliminarily determined based on the doses without mortality.
# [5] = tested on: SD rats; conditions: rat, in vivo
# Method: Male SD rats were anesthetized with isoflurane, and their neck hairs were shaved. A midline incision was made on the neck to expose the trachea. A ventilator and anesthesia machine for small animals were turned on, with concentration of an anesthetic gas set to 1.2, and its exit channel connected to an inlet of the ventilator. Tidal volume of the ventilator was set to 2 mL, the respiratory rate was 90 breaths/minute, and the respiratory ratio was 1:2. An outlet end of the ventilator was connected to a plastic hose, which was inserted into the rat's airway.
# A machine and a software of a biological signal data acquisition and analysis system were turned on. One end of a data acquisition plate was connected to the plastic hose, and the other end was connected to a collector valve connected with a 1-mL syringe. The syringe was filled with heparinized saline, which was injected into the data acquisition plate to expel the air in the entire space until the heparinized saline flowed out from the other end of the plastic hose. The right common carotid arteries of the rats were isolated. A dead knot was made at the distal end and a slipknot at the proximal end of a right common carotid artery. A 1/2-sized incision was made in the artery between the knot with a microscissor, and the plastic hose with heparinized saline was inserted into the incision and fixed to prevent back-and-forth movement. The initial value of the blood pressure was set to zero with the zero-adjustment valve of the biological signal data acquisition and analysis system. The slipknot at the proximal end of the common carotid artery was untied, and real-time blood pressure data of the animal appeared on the software. […] The dosages of IRL1620, BX34, and BX229 were 5 µg/Kg, 42 µg/kg, and 6.6 µg/Kg, respectively.
# [6] = tested on: mouse model of tMCAO; test: Garcia JH scoring in mouse model of tMCAO; format: in vivo, C57/6J mice
# Method: Fifty-one male C57/6J mice, aged 10-12 weeks, weighing 25-30g, were housed for at least 2 days prior to the experiment to adapt to the environment (SPF Biotech). A mouse model of tMCAO was established. The mice were anesthetized with isoflurane. Their body temperature was controlled by a thermostatic blanket and monitored and maintained at 37±0.5°C. A middle incision was made in the skin on the mouse skull, the skin was pulled outward, and a bendable microneedle tip was fixed to the surface of the left parietal bone of the mouse skull. A middle incision on the neck was made to separate the right common carotid artery (CCA), external carotid artery (ECA) and internal carotid artery (ICA). According to the method of Longa (Longa et al., 1989), a silicone rubber-coated suture (RWD Life Science, suture end diameter: 0.22 mm-0.23 mm, MSMC23B120PK50) was introduced through an external carotid artery incision surgery and was slowly advanced through the internal carotid artery towards the origin of the middle cerebral artery. To ensure a sustained and successful occlusion of the middle cerebral artery, we monitored local cerebral blood flow of all stroke animals with a laser speckle flowmeter (generally, the blood flow can be reduced by 40-60% after stabilized). The suture was removed 45 min after the insertion for modeling, and the incision was sutured. Afterward, 1 mL of 37°C warm saline was injected subcutaneously, and the mice were placed on a heating pad until recovery. To alleviate pain, the mice were injected subcutaneously with Tilidine after awakening from anesthesia.
# Successfully modeled C57 tMCAO mice were randomly assigned into three groups: a normal saline group, a 30µg/Kg BX229-Na administration group, and a 100µg/Kg BX229-Na administration group. Each group was administered once subcutaneously in the neck 4.5 hours after occlusion (D1), and was administered once more at the same sites and at the same time points on D3 and D6. A sham group included 6 animals. 2 mL/kg was administrated subcutaneously in the neck. Garcia JH scoring was made on D7 and D14 after administration. After the completion of the scoring on D14, the mice were euthanized and harvested for infarcted brain tissues, to extract total proteins. Changes in protein markers VEGF-A and BDNF in each experimental group were detected by ELISA. Table 19: Experimental Grouping and Dosing Regimen
# [7] = Determination of half-lives of polypeptides (plasma, LC-MS); conditions: C57 BL/6, mouse, plasma, iv
# [8] = 30µg/Kg subcutaneously on D1, D3, D6
# [9] = tMCAO mice, 30µg/Kg s.c. on D1, D3, D6
smiles,measurement,setting,value
CC[C@H](C)[C@H](NC(=O)[C@H](CC(=O)O)NC(=O)[C@H](CCCCN)NC(=O)[C@H](Cc1c[nH]cn1)NC(=O)[C@H](C)NC(=O)[C@H](Cc1ccccc1)NC(=O)[C@H](Cc1ccc(O)cc1)NC(=O)[C@@H](NC(=O)[C@H](C)NC(=O)[C@H](CCC(=O)O)NC(=O)[C@H](CCC(=O)O)NC(=O)[C@H](CC(=O)O)NC(=O)/C=C/C(=O)O)C(C)C)C(=O)N[C@H](C(=O)NC(Cc1ccc2ccccc2c1)C(=O)O)[C@@H](C)CC (some centres unmarked) [BX-13-2] (Fumaroyl-DEEAVYFAHKDII[ξ2Nal]-OH; C-terminus assumed),EC50,[1],11.8 nM
CC[C@H](C)[C@H](NC(=O)[C@H](CC(=O)O)NC(=O)[C@H](CCCCN)NC(=O)[C@H](Cc1c[nH]cn1)NC(=O)[C@H](C)NC(=O)[C@H](Cc1ccccc1)NC(=O)[C@H](Cc1ccc(O)cc1)NC(=O)[C@@H](NC(=O)[C@H](C)NC(=O)[C@H](CCC(=O)O)NC(=O)[C@H](CCC(=O)O)NC(=O)[C@H](CC(=O)O)NC(=O)/C=C/c1ccc(O)c(OC)c1)C(C)C)C(=O)N[C@H](C(=O)N[C@@H](Cc1c[nH]c2ccccc12)C(=O)O)[C@@H](C)CC [BX-15] (Feruloyl-DEEAVYFAHKDIIW-OH; C-terminus assumed),EC50,[1],41.1 nM
CCCCCCCCCCCC(=O)N[C@@H](CCC(=O)NCCOCCOCC(=O)NCCCC[C@H](NC(=O)[C@H](Cc1c[nH]cn1)NC(=O)[C@H](C)NC(=O)[C@H](Cc1ccccc1)NC(=O)[C@H](Cc1ccc(O)cc1)NC(=O)[C@@H](NC(=O)[C@H](C)NC(=O)[C@H](CCC(=O)O)NC(=O)[C@H](CCC(=O)O)NC(=O)[C@H](CC(=O)O)NC(=O)/C=C/C(=O)O)C(C)C)C(=O)N[C@@H](CC(=O)O)C(=O)N[C@H](C(=O)N[C@H](C(=O)N[C@@H](Cc1c[nH]c2ccccc12)C(=O)O)[C@@H](C)CC)C(C)C)C(=O)O [BX-229] (Fumaroyl-DEEAVYFAHK([AEEA-γGlu-Lauroyl])DVIW-OH),MTD at 24 h,[2],0.06 mg/kg
same,Observations of Animal Status,[3]; intravenous (tail vein) 60 µg/Kg,No obvious reaction within 1 hour; developed rapid breathing at 1 hour; recovered to normal after 10 minutes
same,Observations of Animal Status,[3]; intravenous (tail vein) 90 µg/Kg,Died at 1 hour after administration; also recorded: Developed rapid breathing at 25 minutes after administration; recovered after 25 minutes; showed no willingness to move; also recorded: Developed rapid breathing and the body turned purple at 1 hour after administration; partially recovered after 30 minutes; also recorded: Developed rapid breathing and diarrhea at 45 minutes after administration; recovered after 25 minutes; also recorded: Developed rapid breathing at 44 minutes after administration; died of convulsions at 52 minutes after administration; also recorded: Developed rapid breathing at 43 minutes after administration; recovered after 30 minutes
same,Observations of Animal Status,[3]; intravenous (tail vein) 120 µg/Kg,Died at 26 minutes after administration; had white discharge in the nasal cavity and developed diarrhea
same,acute toxicity of subcutaneous administration compared with IRL1620,[4],much lower
same,"maximum extent of decrease in blood pressure, of the baseline blood pressure",[5],17.0%±2.0%
same,time to the lowest blood pressure,[5],20 to 35 min
same,Maximum percentage of blood pressure reduction relative to baseline blood pressure (n = 3),[5]; iv,17.0%±2.0%
same,Time from baseline blood pressure to the lowest blood pressure,[5]; iv,20 to 30 min
same,Garcia JH-15 score on D7 compared with the normal saline group,[6]; [8],better scores than the normal saline group
same,Garcia JH-15 score on D14 compared with the normal saline group,[6]; [8],better scores than that of the normal saline group
same,Garcia JH-15 score on D7 compared with the normal saline group,"[6]; 100µg/Kg subcutaneously on D1, D3, D6",better scores than the normal saline group
same,Garcia JH-15 score on D7 compared with the normal saline group,[6]; [9],better scores
same,Garcia JH-15 score on D14 compared with the normal saline group,[6]; [9],better scores
same,Garcia JH-15 score on D7 compared with the normal saline group,"[6]; tMCAO mice, 100µg/Kg s.c. on D1, D3, D6",better scores
same,Garcia JH-15 score on D14 compared with the normal saline group,"[6]; tMCAO mice, 100µg/Kg s.c. on D1, D3, D6, P < 0.05",significantly different
same,"total score of the Garcia JH-15 score, higher than in the normal saline group by","[6]; tMCAO mice, D7, 100µg/Kg s.c. on D1, D3, D6",1 point
same,half-life,[7],1.28 h
